The source made the active and inactive calls. The calls are words filed in the database; no cut-off is given here.
Tests used:
T-24 [1] = assay: Induction of apoptosis in T24 cells using TUNEL assay; type: functional, cell-based; details: Homo sapiens
HFL1 = assay: Antiproliferative activity against human fibroblast HFL1 cells; type: functional; details: read-out: ED50 (the source's name)
T-24 [2] = assay: Antiproliferative activity against human bladder carcinoma T24 cells; type: functional; details: read-out: ED50 (the source's name)
T-24 [3] = assay: Ability to prime Heparan sulfate synthesis in T24 cells at 0.1 mM; type: functional, Homo sapiens
SV3T3 = assay: Antiproliferative activity against virus transformed mouse fibroblast 3T3 SV40 cells; type: functional; details: read-out: ED50 (the source's name)
[4] = Dissociation constant, pKa of the compound; type: physicochemical
BALB/3T3 = assay: Antiproliferative activity against mouse fibroblast 3T3 A31 cells; type: functional; details: read-out: ED50 (the source's name)

Structure (SMILES)	Activity (T-24 [1])	EC50 (HFL1)	EC50 (T-24 [2])	Activity (T-24 [3])	EC50 (SV3T3)	pKa [4]	EC50 (BALB/3T3)
O[C@@H]1[C@@H](O)[C@H](Oc2ccc3ccccc3c2)OC[C@H]1O	inactive	–	–	–	–	–	–
Oc1ccc2c(O)cccc2c1	–	70 µM	20 µM	–	–	–	–
Oc1ccc2cccc(O[C@@H]3OC[C@@H](O)[C@H](O)[C@H]3O)c2c1	–	370 µM	370 µM	15%	550 µM	9.35	260 µM
Oc1ccc2ccccc2c1O[C@@H]1OC[C@@H](O)[C@H](O)[C@H]1O	–	80 µM	150 µM	2%	65 µM	8.63	10 µM
Oc1cc(O[C@@H]2OC[C@@H](O)[C@H](O)[C@H]2O)cc2ccccc12	–	320 µM	25 µM	20%	575 µM	8.66	410 µM
Oc1ccc2ccc(O)cc2c1	–	70 µM	30 µM	–	–	–	–
Oc1cc2ccccc2cc1O[C@@H]1OC[C@@H](O)[C@H](O)[C@H]1O	–	190 µM	400 µM	28%	180 µM	8.76	25 µM
Oc1ccc(O[C@@H]2OC[C@@H](O)[C@H](O)[C@H]2O)c2ccccc12	–	6 µM	1 µM	12%	105 µM	9.4	165 µM
Oc1ccc(O)c2ccccc12	–	1 µM	0.7 µM	–	–	–	–
Oc1cccc2ccc(O[C@@H]3OC[C@@H](O)[C@H](O)[C@H]3O)cc12	–	330 µM	420 µM	27%	510 µM	9.29	160 µM
Oc1c(O[C@@H]2OC[C@@H](O)[C@H](O)[C@H]2O)ccc2ccccc12	–	40 µM	160 µM	22%	120 µM	8.72	120 µM
Oc1cc2ccccc2cc1O	–	40 µM	30 µM	–	–	–	–
Oc1cc(O)c2ccccc2c1	–	100 µM	70 µM	–	–	–	–
Oc1cccc2cccc(O)c12	–	20 µM	10 µM	–	–	–	–
Oc1ccc2cc(O[C@@H]3OC[C@@H](O)[C@H](O)[C@H]3O)ccc2c1	Active	500 µM	100 µM	30%	320 µM	9.63	440 µM
Oc1ccc2ccccc2c1O	–	25 µM	13 µM	–	–	–	–
Oc1cccc2c(O[C@@H]3OC[C@@H](O)[C@H](O)[C@H]3O)cccc12	–	500 µM	470 µM	29%	> 500 µM	9.16	> 500 µM
Oc1ccc2cccc(O)c2c1	–	< 25 µM	< 10 µM	–	–	–	–
Oc1cccc2c(O)cccc12	–	20 µM	< 10 µM	–	–	–	–
Oc1cccc2cccc(O[C@@H]3OC[C@@H](O)[C@H](O)[C@H]3O)c12	–	180 µM	220 µM	27%	340 µM	10.1	185 µM
Oc1cccc2cc(O[C@@H]3OC[C@@H](O)[C@H](O)[C@H]3O)ccc12	–	500 µM	600 µM	12%	430 µM	9.17	> 500 µM
Oc1ccc2c(O[C@@H]3OC[C@@H](O)[C@H](O)[C@H]3O)cccc2c1	–	370 µM	125 µM	13%	> 500 µM	9.34	210 µM
Oc1cc(O[C@@H]2OC[C@@H](O)[C@H](O)[C@H]2O)c2ccccc2c1	–	240 µM	100 µM	14%	275 µM	9.22	130 µM
Oc1ccc2ccc(O[C@@H]3OC[C@@H](O)[C@H](O)[C@H]3O)cc2c1	–	500 µM	500 µM	37%	460 µM	9.41	300 µM
Oc1ccc2cc(O)ccc2c1	–	< 25 µM	< 10 µM	–	–	–	–

From ChEMBL document CHEMBL1138989, “Selective antiproliferative activity of hydroxynaphthyl-beta-D-xylosides” (J Med Chem, 2006)
